According to US20060110376A1, “MDA-7 and free radicals in the treatment of cancer” (priority 2002, published 2006):
Peptide text beside a SMILES is read from it. * marks the point of attachment. Cbz = O=C(OCc1ccccc1)*; CH2F = FC*

Columns and labels:
[1] = system: prostate carcinoma cell lines (DU-145, PC-3, LNCaP); experiment: MTT viability assay; type: cell-based, human
Protocol: (§1) Cells were seeded in 96-well plates, pretreated with NAC (5 mM) or Tiron (1 mM) for 2 h and infected with Ad.mda-7. Forty eight hours later, viability was assessed by MTT assay. […] Cells were seeded in 96-well plates, infected with Ad.mda-7 and treated with As2O3 (10 μM) or NSC656240 (400 nM). Forty eight h later, viability was assessed by MTT assay. Panel C. […] After treatment, cells were stained using DCF-DA and analyzed using flow cytometry. […] After treatment, cells were washed and stained with Annexin V-FITC conjugate. Late apoptotic and necrotic cells were excluded using PI staining. Results are the mean of three independent experiments performed with triplicate samples±S.E.
[…] Cellular viability was assessed by MTT assay 48 h after infection (Panel A). Mitochondrial membrane potential (DiOC6(3) staining, Panel B) and apoptotic changes (Annexin V staining, Panel C) were assessed 18 h (LNCaP cells) and 24 h (DU-145, PC-3 and P69 cells) after infection.
MTT Viability Assays. This method was performed as described (Lebedeva et al., 2000, Cancer Research 60:6052-6060). […] At the indicated time points, medium was removed, and fresh medium containing 0.5 mg/ml MTT was added to each well. The cells were incubated at 37° C. for 4 h and then an equal volume of solubilization solution (0.01N HCl in 10% SDS) was added to each well and mixed thoroughly. The optical density from the plates was read on a BioRad Microplate Reader Model 550 at 595 nm.

prostate carcinoma cells = experiment: ROS production (DCF fluorescence, flow cytometry); type: cell-based, human; settings: treated with NSC656240 or As2O3
Protocol: as §1

[2] = system: pancreatic carcinoma cells; experiment: MTT viability assay; type: cell-based, human; settings: Ad.mda-7 100 p.f.u./cell
Protocol: (§2) MTT Viability Assays. Cell viability was assessed by MTT assays as described (Lebedeva et al., 2000, Cancer Research 60:6052-6060). Briefly, cells were seeded in 96-well tissue culture plates (1.5×10^3 cells per well) and treated with various agents. At the indicated times, medium was removed, and fresh medium containing 0.5 mg/ml MTT was added to each well. The cells were incubated at 37° C. for 4 h and then an equal volume of solubilization solution (0.01N HCl in 10% SDS) was added to each well and mixed thoroughly. The optical density from the plates was read on a BioRad Microplate Reader Model 550 at 595 nm.

[3] = system: normal cells (immortalized human astrocytes or melanocytes); experiment: MTT viability assay; type: cell-based; settings: Ad.mda-7 100 p.f.u./cell
Protocol: as §2

[4] = system: pancreatic carcinoma cells; experiment: Apoptosis (annexin V exposure, hypodiploid A0 cells); type: cell-based, human; settings: annexin V exposure and A0 population
Source text: FIG. 39. Combined treatment of pancreatic carcinoma cells by NSC656240 and Ad.mda-7 increases levels of annexin V in pancreatic cancer cells irrespective of K-ras status.
FIG. 40. NAC administration prevents the apoptosis of pancreatic cancer cells induced by treatment of pancreatic carcinoma cells by NSC656240 or Ar2O3 and Ad.mda-7.
FIG. 41. Combined treatment of pancreatic carcinoma cells by NSC656240 or Ar2O3 and Ad.mda-7 causes apoptosis irrespective of K-ras status.
Annexin V Binding Assays. Cells were trypsinized, washed once with complete medium and stained with FITC-labeled Annexin-V (kit from Oncogene Research Products, Boston, Mass.) according to the manufacturer's instructions. Flow cytometry was performed immediately after staining.
Cell Cycle Analysis. Cells were trypsinized, washed 2× with PBS and fixed in 70% ethanol overnight at −20° C. Then cells were washed 2 times with PBS, and aliquots of 1×10^6 cells were resuspended in 1 ml of PBS containing 1 mg/ml of RNase A and 0.5 mg/ml of propidium iodide. After 30 min incubation, cells were analyzed by flow cytometry using a FACScan flow cytometer (Becton Dickinson, San Jose, Calif.).

[5] = system: pancreatic cancer cell lines; experiment: Western blotting of K-ras and MDA-7 protein; type: cell-based, human
Source text: FIG. 43. MDA-7 expression in pancreatic cancer cell lines in the presence or absence of Ad.mda-7, Ad.K-rasAS, or NSC656243. The presence of MDA-7 in mutant K-ras cell lines requires expression of both mda-7 and the antisense K-ras construct, and is potentiated by NSC656243.
FIG. 45. The MDA-7 expression observed in the PANC-1 or BxPC-3 cell lines following administration of Ad.mda-7 in combination with either NSC656240 or Ar2O3 is abrogated by NAC administration.
Preparation of Cell Extracts and Western Blotting Analysis. Cells were washed 2× with cold PBS and lysed on ice for 30 min in […] of cold RIPA buffer [50 mM Tris-HCl (pH 8.0), 150 mM NaCl, 0.1% SDS, 1% NP40, and 0.5% sodium deoxycholate] with freshly added 0.1 mg/ml phenylmethylsulfonyl fluoride, 1 mM sodium orthovanadate, and 1 mg/ml aprotinin. After cell debris were removed by centrifugation at 14,000 g for 10 min at 4° C., protein concentrations were determined using the Bio-Rad protein assay system (Bio-Rad Laboratories, Richmond, Calif.). Aliquots of cell extracts containing […] of total protein were resolved in 12% SDS-PAGE and transferred to Immobilon-P PVDF membranes (Millipore Corp., Bedford, Mass.). Filters were blocked for 1 h at room temperature in Blotto A [5% nonfat milk powder in TBS-T: 10 mM Tris-HCl (pH 8.0), 150 mM NaCl, 0.05% Tween 20], and then incubated for 1 h at room temperature in Blotto A containing a 1:1000 dilution of rabbit anti MDA-7 polyclonal antibody. After washing in TBS-T buffer (3×5 min, RT), filters were incubated for 1 h at room temperature in Blotto A containing a 1:10,000 dilution of peroxidase conjugated anti-rabbit secondary antibody (Amersham, Arlington Heights, Ill.). After washing in TBS-T, ECL was performed according to the manufacturer's recommendation.

[6] = system: pancreatic carcinoma cells; experiment: ROS production (flow cytometry); type: cell-based, human
Protocol: FIG. 46. Combined treatment by NSC656240 or Ar2O3 and Ad.mda-7 causes overproduction of ROS in pancreatic carcinoma cells.
Assessment of ROS Production. To determine ROS production, cells were stained with 2.5 μM HE or 5 μM DCFH-DA in PBS for 30 min at 37° C. in the dark. Immediately after staining, cells were analyzed by flow cytometry (FACSscan, Becton-Dickinson, Mountain View, Calif.), and data were analyzed using CellQuest software, version 3.1 (Becton Dickinson). For inhibition experiments, NAC (Sigma) was added 2 h prior to infection with Ad.mda-7. In all cases, cells were gated to exclude cell debris.

[7] = system: pancreatic cancer cells stably transformed to express MDA-7; experiment: Apoptosis and cell death in cells stably expressing MDA-7; type: cell-based, human
Source text: FIG. 49. Induction of apoptosis in pancreatic cancer cell lines (PANC-1) stably expressing MDA-7.
FIG. 50. Induction of apoptosis in pancreatic cancer cell lines (Mia PaCa-2) stably expressing MDA-7.
FIG. 51. Induction of apoptosis in pancreatic cancer cell lines (FM516 or BxPC-3) stably expressing MDA-7.

RT2 cells = experiment: MTT assay with kinase inhibitors; type: cell-based, rat
Protocol: Data are the means±SEM of 3 experiments # p<0.05 less than control treated cells, * p<0.05 less than corresponding value in cells not infected with Ad-mda-7. Panel C. […] Data are the means±SEM of 3 separate experiments. […] Data are the means±SEM of 3 separate experiments. […] Cells were incubated with vehicle or SP600125 (10 μM) 30 min prior to irradiation and growth determined via MTT assay 4 days after irradiation (±SEM, n=4).
The MTT test is based on the enzymatic reduction of the tetrazolium salt MTT in living, metabolically active cells. […] Twenty-four hours after infection/protein treatment, cells were treated with kinase inhibitor drugs and then irradiated. […] The plates were read on a Dynatech MR600 Microplate Reader at 540 nm. All data were normalized relative to the control, non-treated unirradiated cells of the corresponding cell type.

[8] = system: normal immortal P69 prostate epithelial cells; experiment: MTT viability assay; type: cell-based, human; settings: PK11195 50 μM
Protocol: as §1
(§3) FIG. 33A-C. […] Prostate cancer and normal immortalized P69 cells were pretreated with inhibitors of MPT CsA (100 nM) or BA (50 μM), with the enhancer of MPT PK11195 (50 μM) or with the pan-caspase inhibitor z-VAD.fmk (50 μM) for 2 h following infection with Ad.vec or Ad.mda-7. Cellular viability was assessed by MTT assay 48 h after infection (Panel A). Mitochondrial membrane potential (DiOC6(3) staining, Panel B) and apoptotic changes (Annexin V staining, Panel C) were assessed 18 h (LNCaP cells) and 24 h (DU-145, PC-3 and P69 cells) after infection.
MTT Viability Assays. […] The optical density from the plates was read on a BioRad Microplate Reader Model 550 at 595 nm.

SKOV3 cells = experiment: MTT assay with 4-HPR; type: cell-based, human; settings: 500 nM 4-HPR; MTT 96 h
Protocol: FIG. 35. Effect of transduction by Ad.mda-7 on the growth of the ovarian cancer cell line SKOV3 in the presence or absence of N-(4-hydroxyphenyl) retinamide (4-HPR).
SKOV3 cells (ATCC, Manassas Va.) were plated at 10,000 per well in 24 well plates. 24 h after plating cells were infected with either control virus or Ad.mda-7 virus at increasing multiplicities of viral infection. 24 h after infection, cells were treated with 500 nM 4-HPR. 96 h after 4-HPR addition, cell numbers were determined using MTT assays as described above.

[9] = system: prostate cancer cell lines (DU-145, PC-3, LNCaP); experiment: Mitochondrial ΔΨm (DiOC6(3)) and ROS time course; type: cell-based, human; settings: CsA, BA pretreatment; 18 h (LNCaP), 24 h (DU-145, PC-3)
Protocol: as §3

With `O=C1c2ccsc2C(=O)c2sc(CO)cc21` [NSC656240] the “effect of ROS-producing agent on cell death of Ad.mda-7-infected cells” value ([1]; As2O3 10 μM, NSC656240 400 nM, 48 h) was “potentiated cell death”, the ROS levels (prostate carcinoma cells) was “ROS levels increased proportionally” and the “cell death, combinational treatment with Ad.mda-7” value [2] was “caused death of these cells irrespective of their K-ras status”. The “growth, combinational treatment with Ad.mda-7” value [3] was “does not affect growth of normal cells”, the “apoptosis, combination treatment with Ad.mda-7” value [4] was “caused apoptosis in pancreatic carcinoma cells independently of their K-ras status” and the K-ras protein expression ([5]; alone or in combination with Ad.mda-7) was “does not down-regulate K-ras protein expression”. For the same compound, the “MDA-7 protein expression and secretion, combined treatment with Ad.mda-7” value ([5]; wt and mutated K-ras pancreatic cancer cell lines) was “leads to MDA-7 protein expression and secretion”, the “ROS production, combined treatment with Ad.mda-7” value [6] was “Caused ROS overproduction” and the “apoptosis and cell death” value [7] was “caused apoptosis and cell death”.
In the case of `O=S(=O)(O)c1cc(O)c(O)c(S(=O)(=O)O)c1` [Tiron], the “effect of antioxidant on cell death promoting activity of Ad.mda-7” value ([1]; NAC 5 mM, Tiron 1 mM, 48 h) is reported as “abrogated”.
In the case of `COc1cccc(-c2cc(=O)c3ccccc3o2)c1N` [PD98059], the “effect of combined MEK1/2 and PI3K inhibition on proliferation of Ad.mda-7 infected cells” value (RT2 cells; 10 μm PD98059 + 5 μm LY294002) is reported as “significant additional reduction in proliferation” and the “effect of single kinase inhibitor on anti-proliferative effects of Ad.mda-7” value (RT2 cells; 10 μm PD98059 or 5 μm LY294002) is reported as “neither MEK1/2 nor PI3K enhanced the anti-proliferative effects”.
For `CCC(C)N(C)C(=O)c1cc2ccccc2c(-c2ccccc2Cl)n1` (stereo not drawn) [PK11195], the “effect of PK11195 on Ad.mda-7-induced killing” value ([1]; PK11195 50 μM) was “enhanced Ad.mda-7-induced killing” and the “effect of PK11195 on MPT, annexin V staining and killing” value [8] was “without inducing any of these changes in P69 cells”.
`CC1=C(/C=C/C(C)=C/C=C/C(C)=C/C(=O)Nc2ccc(O)cc2)C(C)(C)CCC1` [4-HPR, N-(4-hydroxyphenyl) retinamide] was tested, and the “effect of 4-HPR on toxic effects of MDA-7 expression” value (SKOV3 cells) was “potentiated the toxic effects of MDA-7 expression”.
`CO[C@H](C/C=C\C=C\CC/C=C/C[C@H](C)/C=C/C(=C\C(=O)O)CC(=O)O)/C(C)=C\C=C(/C)C(=O)O` [BA, bongkrekic acid] was tested, and the “effect of MPT inhibitor on cell death of Ad.mda-7-infected cells” value ([1]; CsA (200 nM), BA (50 μM) pretreatment 2 h) was “prevented cell death” and the “effect on Ad.mda-7-induced decline in ΔΨm” value [9] was “abrogated the decline in ΔΨm”.
For `COC(=O)C[C@H](NC(=O)[C@H](C)NC(=O)[C@@H](NC(=O)OCc1ccccc1)C(C)C)C(=O)CF` [z-VAD.fmk] (Cbz-Val-Ala-Asp(OMe)-CH2F), the “effect of z-VAD.fmk on cell death” value ([1]; z-VAD.fmk 50 μM) was “inhibited cell death”.
